According to US20190127366A1 (LifeSci Pharmaceuticals, Inc., priority 2015, published 2019):
pEC50, pIC50: −log10 of the molar value.

Legend:
[1] = target: T1, human complement factor D (Homo sapiens, UniProt P00746); test: In vitro enzyme inhibition (Z-Lys-SBzl/DTNB absorbance assay); assay type: biochemical; details: Complement Factor D (R&D Systems), substrate Z-Lys-SBzl, A405 nm; read-out: CFD IC50
T1 construct: purchased R&D Systems 1824-SE
Summary of the method: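 Factor D (6.25 ng/μL before addition) preincubated 5 min RT with compound (8 points from 50 μM, 6-fold, 0.5% DMSO final) in 50 mM Tris/HCl pH 7.5, 1 M NaCl, then Z-Lys-SBzl/DTNB added (200 μM each before addition). A405 read kinetically every 30 s for 60 min; IC50 from variable-slope fit, controls with and without enzyme.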

[2] = tested on: alternative pathway (AP) hemolytic activity; test: AP hemolysis inhibition assay; assay type: cell-based; details: Erythrocyte, 1 h; Normal Human Serum, chicken or rabbit erythrocytes, 60 min at 37° C., OD 414 nm
Procedure: The ability of the compounds disclosed herein to inhibit alternative pathway (AP) hemolytic activity was determined. Red blood cells (RBC), chicken or rabbit erythrocyctes (SbjBio), were washed three time using assay buffer containing 0.1% gelatin, 5 mM Veronal, 145 mM NaCl, 0.025% NaN3, 10 mM Mg-EGTA pH 7.3. In 100 μL reaction system, 1300 to 1500 ng/μL final concentration of Normal Human Serum (CompTech) was incubated with compound for 15 min at 37° C. Then 2×10^6 cells/well of chicken or rabbit erythrocytes in assay buffer were added and incubated for an additional 60 min at 37° C. Positive control (100% lysis) consists of serum and RBC, and negative control (0% lysis) consists of assay buffer and RBC only. Samples were centrifuged at 2000 g for 5 min, and supernatants collected. Optical density of the supernatant is monitored at 414 nm using Synergy 2 (BioTek). Percentage lysis in each sample is calculated relative to positive control (100% lysis).
Table 3 discloses the inhibitory activity of the compounds provided herein in the hemolysis assay.

T1 sequence (P00746 26-253): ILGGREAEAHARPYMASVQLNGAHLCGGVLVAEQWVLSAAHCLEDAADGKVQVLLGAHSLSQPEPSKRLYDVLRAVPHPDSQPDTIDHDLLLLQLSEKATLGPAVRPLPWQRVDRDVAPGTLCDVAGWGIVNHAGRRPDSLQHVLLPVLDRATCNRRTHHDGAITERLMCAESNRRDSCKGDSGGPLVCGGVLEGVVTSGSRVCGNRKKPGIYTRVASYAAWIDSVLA

SMILES | pIC50 [1] | pEC50 [2]
NC(=O)c1nn(CC(=O)N2[C@@H]3CC[C@@H](C3)[C@H]2C(=O)NCc2cccc(Cl)c2F)c2ccccc12 [Example 38, 1-(2-((1R,3S,4S)-3-((3-chloro-2-fluorobenzyl)carbamoyl)-2-azabicyclo[2.2.1]heptan-2-yl)-2-oxoethyl)-1H-indazole-3-carboxamide] | 6.00 to 7.00 | 5.00 to 6.00
NC(=O)c1nn(CC(=O)N2[C@@H]3CC[C@@H](C3)[C@H]2C(=O)Nc2cccc(Cl)n2)c2cc(F)ccc12 [Example 71, 1-(2-((1R,3S,4S)-3-((6-chloropyridin-2-yl)carbamoyl)-2-azabicyclo[2.2.1]heptan-2-yl)-2-oxoethyl)-6-fluoro-1H-indazole-3-carboxamide] | > 7.00 | 6.00 to 7.00
CC(=O)c1nn(CC(=O)N2[C@@H]3CC[C@@H](C3)[C@H]2C(=O)Nc2cccc(Cl)n2)c2cnccc12 [Example 66, (1R,3S,4S)-2-(2-(3-acetyl-1H-pyrazolo[3,4-c]pyridin-1-yl)acetyl)-N-(6-chloropyridin-2-yl)-2-azabicyclo[2.2.1]heptane-3-carboxamide] | 6.00 to 7.00 | 6.00 to 7.00
NC(=O)c1nn(CC(=O)N2C3CCC(C3)[C@H]2C(=O)Nc2cccc(Cl)n2)c2ccc(C3CC3)cc12 (stereo partly drawn) [Example 11, 1-(2-((3S)-3-((6-chloropyridin-2-yl)carbamoyl)-2-azabicyclo[2.2.1]heptan-2-yl)-2-oxoethyl)-5-cyclopropyl-1H-indazole-3-carboxamide] | 6.00 to 7.00 | 5.00 to 6.00
NC(=O)c1nn(CC(=O)N2[C@H](C(=O)Nc3cccc(Cl)n3)C[C@@H]3CCC[C@@H]32)c2ccccc12 [Example 159, 1-(2-((2S,3aS,6aS)-2-((6-chloropyridin-2-yl)carbamoyl)hexahydrocyclopenta[b]pyrrol-1(2H)-yl)-2-oxoethyl)-1H-indazole-3-carboxamide] | 6.00 to 7.00 | 6.00 to 7.00
NC(=O)c1nn(CC(=O)N2[C@@H]3CC[C@@H](C3)[C@H]2C(=O)Nc2cccc(Cl)n2)c2cc(N)ccc12 [Example 93, 6-amino-1-(2-((1R,3S,4S)-3-((6-chloropyridin-2-yl)carbamoyl)-2-azabicyclo[2.2.1]heptan-2-yl)-2-oxoethyl)-1H-indazole-3-carboxamide 2,2,2-trifluoroacetate] | 6.00 to 7.00 | 6.00 to 7.00
NC(=O)c1nn(CC(=O)N2[C@@H]3CC[C@@H](C3)[C@H]2C(=O)Nc2cccc(Cl)n2)c2ccc(C3CC3)cc12 [Example 56, 1-(2-((1R,3S,4S)-3-((6-chloropyridin-2-yl)carbamoyl)-2-azabicyclo[2.2.1]heptan-2-yl)-2-oxoethyl)-5-cyclopropyl-1H-indazole-3-carboxamide 2,2,2-trifluoroacetate] | 6.00 to 7.00 | 6.00 to 7.00
COC(=O)c1ccc2c(C(N)=O)nn(CC(=O)N3[C@@H]4CC[C@@H](C4)[C@H]3C(=O)Nc3cccc(Cl)n3)c2c1 [Example 122, methyl 3-carbamoyl-1-(2-((1R,3S,4S)-3-((6-chloropyridin-2-yl)carbamoyl)-2-azabicyclo[2.2.1]heptan-2-yl)-2-oxoethyl)-1H-indazole-6-carboxylate] | 6.00 to 7.00 | 6.00 to 7.00
NC(=O)n1nc(CC(=O)N2CC[C@H]2C(=O)NCc2cccc(Cl)c2F)c2ccccc21 [Example 188, (S)-3-(2-(2-((3-chloro-2-fluorobenzyl)carbamoyl)azetidin-l-yl)-2-oxoethyl)-1H-indazole-1-carboxamide] | > 7.00 | 6.00 to 7.00
NC(=O)c1nn(CC(=O)N2[C@@H]3CC[C@@H](C3)[C@H]2C(=O)Nc2cccc(Br)n2)c2ccccc12 [Example 65, 1-(2-((1R,3S,4S)-3-((6-bromopyridin-2-yl)carbamoyl)-2-azabicyclo[2.2.1]heptan-2-yl)-2-oxoethyl)-1H-indazole-3-carboxamide] | > 7.00 | 6.00 to 7.00
Cc1cc(Cl)nc(NC(=O)[C@@H]2[C@H]3CC[C@H](C3)N2C(=O)Cn2nc(C(N)=O)c3ccccc32)c1 [Example 77, 1-(2-((1R,3S,4S)-3-((6-chloro-4-methylpyridin-2-yl)carbamoyl)-2-azabicyclo[2.2.1]heptan-2-yl)-2-oxoethyl)-1H-indazole-3-carboxamide] | 6.00 to 7.00 | 6.00 to 7.00
NC(=O)c1nn(CC(=O)N2[C@@H]3CC[C@@H](C3)[C@H]2C(=O)Nc2cccc(Cl)c2F)c2ccccc12 [Example 18, 1-(2-((1R,3S,4S)-3-((3-chloro-2-fluorophenyl)carbamoyl)-2-azabicyclo[2.2.1]heptan-2-yl)-2-oxoethyl)-1H-indazole-3-carboxamide] | 6.00 to 7.00 | 5.00 to 6.00
NC(=O)c1nn(CC(=O)N2[C@@H]3CC[C@@H](C3)[C@H]2C(=O)Nc2cccc(Cl)n2)c2cc(C(=O)O)ccc12 [Example 123, 3-carbamoyl-1-(2-((1R,3S,4S)-3-((6-chloropyridin-2-yl)carbamoyl)-2-azabicyclo[2.2.1]heptan-2-yl)-2-oxoethyl)-1H-indazole-6-carboxylic acid] | > 7.00 | > 7.00
CC(=O)c1nn(CC(=O)N2[C@@H]3CC[C@@H](C3)[C@H]2C(=O)Nc2cccc(Cl)n2)c2ccccc12 [Example 80, (1R,3S,4S)-2-(2-(3-acetyl-1H-indazol-1-yl)acetyl)-N-(6-chloropyridin-2-yl)-2-azabicyclo[2.2.1]heptane-3-carboxamide] | > 7.00 | 6.00 to 7.00
